Experiments:
[1] = tested on: UMSCC1 cells; test: Flow cytometry for cleaved caspase-3 after IRAK1 inhibitor; type: cell-based, human; conditions: 72 hours, vs DMSO
Description: Flow cytometry for Cleaved Caspase-3. Lentivirally transduced cells were plated at equal densities and collected 48 hours later. Cells were fixed and prepped following the BD FITC Active Caspase-3 Apoptosis kit protocol (BD Biosciences). […] Analysis was performed on a BD FacsCanto and data analyzed on FlowJo software (Tree Star, Ashland, Oreg., USA). Experiments were performed 3 times with standard error of the mean (SEM) represented. IRAK1 inhibitor. UMSCC1 cells were plated at equal densities and IRAK1 inhibitor (IRAK-1/4 inhibitor, 15409, Sigma-Aldrich, St. Louis, Mo., USA) added the same day for caspase-3 flow cytometry experiments. DMSO was added in equal volume for a control. Cells and media were collected 72 hours later and prepared and analyzed as above. For the time-course experiment, cells were plated and inhibitor was added the following day, with protein collected at 24, 48, and 72 hours and analyzed by western blot for IRAK1 inhibition.

[2] = tested on: melanoma cells; conditions: in vitro and in vivo; cited from earlier work
[3] = tested on: MDS; conditions: cited from earlier work
[4] = molecular target: T1, IRAK1 (Homo sapiens, UniProt P51617); test: Western blot for phospho-IRAK1 after IRAK-1/4 inhibitor treatment (time course); type: cell-based; conditions: UMSCC1 and UMSCC47 cells
T1 construct: endogenous in cells; host or cells: UMSCC1 and UMSCC47
T1 sequence (P51617 whole entry): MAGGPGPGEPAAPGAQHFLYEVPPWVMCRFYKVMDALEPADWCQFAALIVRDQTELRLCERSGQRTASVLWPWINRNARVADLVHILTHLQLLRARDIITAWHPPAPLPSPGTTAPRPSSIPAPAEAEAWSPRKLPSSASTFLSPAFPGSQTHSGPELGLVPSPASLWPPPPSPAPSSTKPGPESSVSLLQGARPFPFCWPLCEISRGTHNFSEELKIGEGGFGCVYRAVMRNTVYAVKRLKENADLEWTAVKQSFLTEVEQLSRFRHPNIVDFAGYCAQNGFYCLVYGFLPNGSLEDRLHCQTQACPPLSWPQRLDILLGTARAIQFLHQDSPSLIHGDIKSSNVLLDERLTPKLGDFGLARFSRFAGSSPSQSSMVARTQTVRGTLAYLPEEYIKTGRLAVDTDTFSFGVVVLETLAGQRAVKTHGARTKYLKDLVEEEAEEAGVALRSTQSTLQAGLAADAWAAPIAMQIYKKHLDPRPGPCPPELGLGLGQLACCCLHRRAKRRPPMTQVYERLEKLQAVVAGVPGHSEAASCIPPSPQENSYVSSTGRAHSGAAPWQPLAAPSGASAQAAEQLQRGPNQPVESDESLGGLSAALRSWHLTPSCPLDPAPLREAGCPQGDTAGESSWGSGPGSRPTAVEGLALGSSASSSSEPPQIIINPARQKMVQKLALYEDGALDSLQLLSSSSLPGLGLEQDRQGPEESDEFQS
Description: Western blotting. Whole cell lysates were harvested using Laemmli buffer and a total of 20 μg of protein was analyzed as described previously. Membranes were probed with DEK (1:1000, BD Biosciences, San Jose, Calif., USA), IRAK1 (1:1000, Santa Cruz Biotechnology, Dallas, Tex., USA (sc-7883)), TRAF6 (1:1000, Santa Cruz (sc-7221)), phospho-IRAK1 (Thr209, 1:800, Assay Biotechnology Company (A1074), Sunnyvale, Calif., USA), phospho-p38 (1:500, Cell Signaling Technologies (4361)), p38 (1:1000, Cell Signaling Technologies (9212)), phospho-ERK1/2 (1:1000, Cell Signaling Technologies (4377)), ERK1/2 (1:1000, Cell Signaling Technologies (4695)), phospho-IKKa/r3 (1:500, Cell Signaling Technologies (2697)), IKKa (1:1000, Cell Signaling Technologies (2682)), phospho-hcBa (1:500, Cell Signaling Technologies (9246)), hcBa (1:1000, Cell Signaling Technologies (4812)), a-tubulin-HRP (1:10,000 Cell Signaling Technologies (9099)), actin (1:10,000 a gift from James Lessard), and GAPDH (1:1000, Cell Signaling Technologies (5174)).
IRAK1 inhibitor. […]
Cells and media were collected 72 hours later and prepared and analyzed as above. For the time-course experiment, cells were plated and inhibitor was added the following day, with protein collected at 24, 48, and 72 hours and analyzed by western blot for IRAK1 inhibition.

[5] = tested on: IRAK1 and IRAK4; conditions: cited from earlier work

- IRAK1 activation (phosphorylation of IRAK1, western blot) ([4]; 1 μM or 10 μM final concentrations, indicated time-points, vs DMSO): reduces IRAK1 activation
- activation of IRAK1 (phosphorylation of IRAK1, western blot) ([4]; 10 μM, 24-72 hours post-treatment): attenuated activation of IRAK1
Compound: O=C(Nc1nc2ccccc2n1CCN1CCOCC1)c1cccc([N+](=O)[O-])c1 [IRAK-1/4 inhibitor, N-(2-morpholinylethyl)-2-(3-nitrobenzoylamido)-benzimidazole]
- apoptosis (cleaved caspase-3) [1]: Significantly increased apoptosis
- apoptosis (cleaved caspase-3) ([1]; listed as IRAK1-inhibitor): increases apoptosis
- apoptosis in melanoma cells [2]: increase apoptosis
- signaling and cell viability in MDS [3]: inhibit signaling and cell viability
- kinase selectivity [5]: selective for IRAK1 and IRAK4 and shows little specificity for other kinases

From patent US20180282734A1, “METHODS AND COMPOSITIONS FOR THE TREATMENT OF HEAD AND NECK CANCER” (Children's Hospital Medical Center, priority 2015, published 2018)
